Experimental data as given in publication PMC5618406, “New Marine Antifouling Compounds from the Red Alga Laurencia sp” (Marine Drugs, 2017).
Like-named read-outs stand apart in the source and are kept apart here.

Columns and labels:
[1] = system: larvae of the barnacle Amphibalanus amphitrite; assay: Antifouling assay against barnacle larvae; format: in vivo; settings: for toxicity to larvae: at 10 µg/mL
Procedure: (§1) An antifouling assay against larvae of the barnacle Amphibalanus amphitrite was conducted according to the previous literature. The antifouling assay against diatoms Nitzschia sp. and Cylindrotheca closterium was conducted as follows. The diatoms were maintained in test tubes under 16 h light and 8 h dark cycle conditions at 25 °C in modified Jorgensen’s medium. Pure compounds were applied to a sample zone (16 mm in diameter) of cellulose TLC aluminum sheet (58 × 58 mm), and then each treated sheet was placed in Petri dish (15 × 90 mm in diameter). After that, 25-mL aliquots of modified Jorgensen’s medium were introduced into Petri dishes with treated sheets, and inoculated with 1 mL of cultivated diatom suspension in equivalent cell densities. Petri dishes were sealed with Parafilm to ensure a closed system, and were incubated under the same conditions. Cell growth was estimated daily, and the adhesive condition was evaluated and compared to those of the control after seven days of incubation.

[2] = Antifouling assay against barnacle larvae; format: in vivo; settings: Amphibalanus amphitrite (barnacle), in vivo, barnacle larvae
Procedure: as §1

Nitzschia sp. = assay: Antifouling (anti-diatom) assay on treated cellulose TLC sheet; format: cell-based; settings: at 5–10 µg/cm^2, seven days of incubation
Procedure: as §1

Cylindrotheca closterium = assay: as above; format: cell-based; settings: at 5–10 µg/cm^2, seven days of incubation
Procedure: as §1

[3] = Amphibalanus amphitrite, barnacle larvae, Table 4, read-out: EC50
[4] = Amphibalanus amphitrite, barnacle larvae, values in text, read-out: antifouling activity EC50
[5] = barnacle larvae, values in text
[6] = values in text, read-out: toxicity LC50
[7] = Amphibalanus amphitrite, barnacle larvae, Table 4, dash entries, read-out: EC50
[8] = Table 4, dash entries, read-out: LC50

| Structure (SMILES) | EC50 [1, 3] | EC50 [1, 4] | LC50 [2, 6] | LC50 [2, 8] | also measured |
| --- | --- | --- | --- | --- | --- |
| CC[C@@H]1[C@@H]2[C@H]3OC(C=C=CBr)C[C@H]3O[C@]2(O)[C@@H](Br)C[C@H]1Br (relative stereo) [Compound 3, hachijojimallene A] | 310 nM | 0.15 to 0.23 µg/mL | 9.8 µg/mL |  | antifouling activity EC50 [1, 5]: 0.15 µg/mL; LC50 ([2]; Table 4, read-out: LC50): 20000 nM |
| CC[C@@H]1[C@@H]2[C@H]3OC(C=C=CBr)C[C@H]3O[C@@]23O[C@@H]1C[C@@H]3Br (relative stereo) [Compound 4, hachijojimallene B] | 760 nM | 0.31 µg/mL | 6.8 µg/mL |  | LC50 ([2]; Table 4, read-out: LC50): 17000 nM |
| CC(C)=CCCC(C)C1(O)CCC2(C)C(Br)CCC(C)(O)C2C1 (centres unmarked) [Compound 1, omaezol] | 590 nM | 0.15 to 0.23 µg/mL | 3.7 µg/mL |  | antifouling activity EC50 [1, 5]: 0.23 µg/mL; LC50 ([2]; Table 4, read-out: LC50): 9600 nM |
| CC(C)(Cl)C(Br)CCC(C)(O)C1CCC(C)(C(O)CCC2OC3(C(C)(O)CCC(Br)C(C)(C)Cl)CCC2(C)O3)O1 (centres unmarked) [Compound 2, intricatriol] |  | > 10 µg/mL |  | > 10 µg/mL | EC50 [1, 7]: > 10 µg/mL |
| Cc1ccc2c(c1)O[C@@]1(C=O)[C@@H](C)CC[C@@]21C [Compound 5, debromoaplysinal] | 4300 nM | 1 µg/mL |  | > 10 µg/mL | toxicity to larvae [1]: did not kill any larvae |
| CC1=C(/C=C/C(C)=C/CC/C(C)=C/CO)C(C)(C)CC(O)C1 (centres unmarked) [Compound 6, 11,12-dihydro-3-hydroxyretinol] |  |  |  |  | anti-diatom activity (Nitzschia sp.): showed inhibition; anti-diatom activity (Cylindrotheca closterium): showed inhibition |
| Cc1cc(O)c([C@]2(C)CC[C@@H]3C[C@@]32C)cc1Br [Compound 8, laurinterol] | 2200 nM | 0.65 µg/mL | 5.8 µg/mL |  | LC50 ([2]; Table 4, read-out: LC50): 20000 nM |
| C=C1[C@@H](C)CC[C@@]1(C)c1cc(Br)c(C)cc1O [Compound 9, isolaurinterol] | 1200 nM | 0.34 µg/mL | > 10 µg/mL | > 10 µg/mL |  |
| Cc1ccc([C@]2(C)CC[C@@H]3C[C@@]32C)c(O)c1 [Compound 10, debromolaurinterol] | 2300 nM | 0.5 µg/mL | > 10 µg/mL | > 10 µg/mL |  |
| Cc1ccc([C@]2(C)CC[C@@H](Br)C2(C)C)cc1 [Compound 11, α-bromocuparene] |  |  |  | > 10 µg/mL | EC50 [1, 7]: > 10 µg/mL; antifouling activity ([1]; barnacle larvae, result in words): inactive |
| CC1(C)C(Br)=C[C@H]2O[C@@]2(C)[C@]12C[C@H](Br)[C@@](C)(Cl)C[C@@H]2O [Compound 12, prepacifenol] | 1500 nM | 0.63 µg/mL | > 10 µg/mL | > 10 µg/mL | anti-diatom activity (Nitzschia sp.): showed inhibition; anti-diatom activity (Cylindrotheca closterium): showed inhibition |
| CC1(C)[C@]23C[C@H](Br)[C@@](C)(Cl)C[C@@H]2O[C@@]1(Br)C=C[C@@]3(C)O [Compound 13, pacifenol] | 5500 nM | 2.36 µg/mL | > 10 µg/mL | > 10 µg/mL |  |
| CC1=C[C@H](O)[C@@H](Br)C(C)(C)[C@]12CC[C@](C)(Cl)[C@@H](Br)C2 [Compound 14, 2,10-dibromo-3-chloro-9-hydroxy-α-chamigrene] | 6100 nM | 2.51 µg/mL | > 10 µg/mL | > 10 µg/mL | anti-diatom activity (Nitzschia sp.): showed inhibition; anti-diatom activity (Cylindrotheca closterium): showed inhibition |
| O=S(=O)([O-])[O-].[Cu+2] [CuSO4, reference compound] |  |  |  |  | LC50 ([1]; barnacle larvae, Table 4): 1400 nM; EC50 ([1]; barnacle larvae, Table 4, read-out: EC50): 720 nM; antifouling activity EC50 [1, 5]: 0.18 µg/mL |
| Cn1c(Br)c(Br)c2ccc(Br)cc21 [N-methyl-2,3,6-tribromoindole] |  | 4.3 µg/mL |  |  | toxicity to larvae [1]: not toxic |
